This passage reports IC50 results from US10894784B2, “Heteroarylbenzimidazole compounds” (BAYER PHARMA AKTIENGESELLSCHAFT, priority 2015, dated 2021).

The target in this test is TBK1 (Homo sapiens (Human), UniProt Q9UHD2). In words: TBK1 low ATP kinase assay (in vitro assay 1). The test is classed as biochemical. Particulars: in vitro assay 1, read-out: TBK1 low ATP kinase assay IC50.
Chain of TBK1 (Q9UHD2 whole entry): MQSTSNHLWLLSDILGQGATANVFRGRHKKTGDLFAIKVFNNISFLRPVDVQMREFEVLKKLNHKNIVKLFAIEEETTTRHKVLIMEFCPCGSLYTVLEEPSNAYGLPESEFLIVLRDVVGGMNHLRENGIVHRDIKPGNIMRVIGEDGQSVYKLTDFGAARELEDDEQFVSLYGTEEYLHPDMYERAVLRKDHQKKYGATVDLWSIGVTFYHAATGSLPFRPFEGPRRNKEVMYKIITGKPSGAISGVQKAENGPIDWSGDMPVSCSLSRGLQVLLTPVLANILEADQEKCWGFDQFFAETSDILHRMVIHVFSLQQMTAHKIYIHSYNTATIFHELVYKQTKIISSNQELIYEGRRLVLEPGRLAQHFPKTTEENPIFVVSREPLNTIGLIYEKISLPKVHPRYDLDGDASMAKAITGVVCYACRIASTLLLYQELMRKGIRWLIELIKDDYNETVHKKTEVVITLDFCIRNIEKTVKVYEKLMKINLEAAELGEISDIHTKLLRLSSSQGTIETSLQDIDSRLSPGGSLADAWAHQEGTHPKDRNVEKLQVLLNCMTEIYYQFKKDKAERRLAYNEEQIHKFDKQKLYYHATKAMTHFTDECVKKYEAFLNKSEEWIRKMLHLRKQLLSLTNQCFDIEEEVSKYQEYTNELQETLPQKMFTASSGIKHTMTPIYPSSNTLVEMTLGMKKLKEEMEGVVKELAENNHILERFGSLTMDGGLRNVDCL
The IC50 is the concentration that inhibits the measured activity by half. Take `CC(C)(C)OC(=O)N1CCN(Cc2ccnc(Nc3nc4ccc(-c5ccncc5C#N)cc4[nH]3)c2)CC1` [Example 133.01, tert-butyl 4-[(2-{[6-(3-cyanopyridin-4-yl)-1H-benzimidazol-2-yl]amino}pyridin-4-yl)methyl]piperazine-1-carboxylate]: the IC50 was 280 nM.
To `CN(CC1CC1)c1cc(-c2ccc3nc(Nc4cc(CN5CCN(C(=O)C6CC6)CC5)ccn4)[nH]c3c2)ncn1` [Example 141.03, cyclopropyl[4-({2-[(6-{6-[(cyclopropylmethyl)(methyl)amino]pyrimidin-4-yl}-1H-benzimidazol-2-yl)amino]pyridin-4-yl}methyl)piperazin-1-yl]methanone] belongs 13 nM; to `COc1cnc(C)cc1-c1ccc2nc(Nc3cc(CN4CCN(C(=O)C5CCC5)CC4)ccn3)[nH]c2c1` [Example 07.03, cyclobutyl{4-[(2-{[6-(5-methoxy-2-methylpyridin-4-yl)-1H-benzimidazol-2-yl]amino}pyridin-4-yl)methyl]piperazin-1-yl}methanone], 384 nM; to `COc1cnccc1-c1ccc2nc(Nc3cc(CN4CCN(C(=O)C(C)(C)O)CC4)ccn3)[nH]c2c1` [Example 04.09, 2-hydroxy-1-{4-[(2-{[6-(3-methoxypyridin-4-yl)-1H-benzimidazol-2-yl]amino}pyridin-4-yl)methyl]piperazin-1-yl}-2-methylpropan-1-one], 28.5 nM.
The figure for `CSc1cc(-c2ccc3nc(Nc4cc(CN5CCN(C(=O)C6CC6)CC5)ccn4)[nH]c3c2)ncn1` [Example 95.02, cyclopropyl(4-{[2-({6-[6-(methylsulfanyl)pyrimidin-4-yl]-1H-benzimidazol-2-yl}amino)pyridin-4-yl]methyl}piperazin-1-yl)methanone] is 9.5 nM; for `COc1cnccc1-c1ccc2nc(Nc3cc(CN4CCN(C(=O)CC(F)(F)F)CC4)ccn3)[nH]c2c1` [Example 04.02, 3,3,3-trifluoro-1-{4-[(2-{[6-(3-methoxypyridin-4-yl)-1H-benzimidazol-2-yl]amino}pyridin-4-yl)methyl]piperazin-1-yl}propan-1-one] it is 16.4 nM; for `COc1cnc(Cl)nc1-c1ccc2nc(Nc3cc(CN4CCN(C(=O)OC(C)(C)C)CC4)ccn3)[nH]c2c1` [Example 63.01.01, tert-butyl 4-[(2-{[6-(2-chloro-5-methoxypyrimidin-4-yl)-1H-benzimidazol-2-yl]amino}pyridin-4-yl)methyl]piperazine-1-carboxylate] it is 36.4 nM.
The figure for `Cc1cc(-c2ccc3nc(Nc4cc(CN5CCN(C(=O)OC(C)(C)C)CC5)ccn4)[nH]c3c2)c(F)cn1` [Example 131.01, tert-butyl 4-[(2-{[6-(5-fluoro-2-methylpyridin-4-yl)-1H-benzimidazol-2-yl]amino}pyridin-4-yl)methyl]piperazine-1-carboxylate] is 140 nM; for `CNc1cc(-c2ccc3nc(Nc4cc(CN5CCN(C(=O)C6CC6)CC5)ccn4)[nH]c3c2)ncn1` [Example 150.03, cyclopropyl(4-{[2-({6-[6-(methylamino)pyrimidin-4-yl]-1H-benzimidazol-2-yl}amino)pyridin-4-yl]methyl}piperazin-1-yl)methanone] it is 5.4 nM; for `O=C(CC(F)(F)F)N1CCN(Cc2ccnc(Nc3nc4ccc(-c5nc(C6CC6)no5)cc4[nH]3)c2)CC1` [Example 17.02, 1-{4-[(2-{[6-(3-cyclopropyl-1,2,4-oxadiazol-5-yl)-1H-benzimidazol-2-yl]amino}pyridin-4-yl)methyl]piperazin-1-yl}-3,3,3-trifluoropropan-1-one] it is 64.9 nM.
On to `Cc1c(-c2ccc3nc(Nc4cc(CN5CCN(C(=O)C6CC6)CC5)ccn4)[nH]c3c2)ncnc1C(F)(F)F` [Example 183.03, cyclopropyl(4-{[2-({6-[5-methyl-6-(trifluoromethyl)pyrimidin-4-yl]-1H-benzimidazol-2-yl}amino)pyridin-4-yl]methyl}piperazin-1-yl)methanone], for which the IC50 was 2240 nM.
To `Cc1cc(-c2ccc3nc(Nc4cc(C(C)N5CCN(C(=O)C6CC6)CC5)ccn4)[nH]c3c2)ncn1` (single isomer, unassigned) [Example 30.03.03.B, cyclopropyl{4-[(1S or 1R)-1-(2-{[6-(6-methylpyrimidin-4-yl)-1H-benzimidazol-2-yl]amino}pyridin-4-yl)ethyl]piperazin-1-yl}methanone] belongs 14 nM; to `Cc1cc(-c2ccc3nc(Nc4cc(CN5CCN(C(=O)CC(F)(F)F)CC5)ccn4)[nH]c3c2)ccn1` [Example 01.03, 3,3,3-trifluoro-1-{4-[(2-{[6-(2-methylpyridin-4-yl)-1H-benzimidazol-2-yl]amino}pyridin-4-yl)methyl]piperazin-1-yl}propan-1-one], 53.5 nM.
To `CCOc1nccc(-c2ccc3nc(Nc4cc(C(C)N5CCN(C(=O)CC(F)(F)F)CC5)ccn4)[nH]c3c2)n1` (racemic) [Example 26.02.01, (rac)-1-{4-[1-(2-{[6-(2-ethoxypyrimidin-4-yl)-1H-benzimidazol-2-yl]amino}pyridin-4-yl)ethyl]piperazin-1-yl}-3,3,3-trifluoropropan-1-one] belongs 4.68 nM.
The figure for `COc1cnnc(-c2ccc3nc(Nc4cc(CN5CCN(C(=O)C6CC6)CC5)ccn4)[nH]c3c2)c1` [Example 47.02, cyclopropyl{4-[(2-{[6-(5-methoxypyridazin-3-yl)-1H-benzimidazol-2-yl]amino}pyridin-4-yl)methyl]piperazin-1-yl}methanone] is 504 nM; for `CC(c1ccnc(Nc2nc3ccc(-c4cc(OCC(C)(F)F)ncn4)cc3[nH]2)c1)N1CCN(C(=O)C2CC2)CC1` (single isomer, unassigned) [Example 165.03, cyclopropyl(4-{(1R or 1S)-1-[2-({6-[6-(2,2-difluoropropoxy)pyrimidin-4-yl]-1H-benzimidazol-2-yl}amino)pyridin-4-yl]ethyl}piperazin-1-yl)methanone] it is 1.79 nM.
In the case of `Cc1cc(-c2ccc3nc(Nc4cc(C(C)N5CCN(C(=O)OC(C)(C)C)CC5)ccn4)[nH]c3c2)n(C)n1` (single isomer, unassigned) [Example 89.01, tert-butyl 4-[(1R or 1S)-1-(2-{[6-(1,3-dimethyl-1H-pyrazol-5-yl)-1H-benzimidazol-2-yl]amino}pyridin-4-yl)ethyl]piperazine-1-carboxylate], the IC50 is 610 nM.
The figure for `CC(C)Oc1cnccc1-c1ccc2nc(Nc3cc(CN4CCN(C(=O)C5CC5)CC4)ccn3)[nH]c2c1` [Example 06.02, cyclopropyl(4-{[2-({6-[3-(propan-2-yloxy)pyridin-4-yl]-1H-benzimidazol-2-yl}amino)pyridin-4-yl]methyl}piperazin-1-yl)methanone] is 7.12 nM; for `CSc1ncc(-c2ccc3nc(Nc4cc(CN5CCN(C(=O)C6CC6)CC5)ccn4)[nH]c3c2)cn1` [Example 45.05.03, cyclopropyl(4-{[2-({6-[2-(methylsulfanyl)pyrimidin-5-yl]-1H-benzimidazol-2-yl}amino)pyridin-4-yl]methyl}piperazin-1-yl)methanone] it is 840 nM.
To `Cc1noc(-c2ccc3nc(Nc4cc(CN5CCN(C(=O)C6CCC6)CC5)ccn4)[nH]c3c2)n1` [Example 16.01.05, cyclobutyl{4-[(2-{[6-(3-methyl-1,2,4-oxadiazol-5-yl)-1H-benzimidazol-2-yl]amino}pyridin-4-yl)methyl]piperazin-1-yl}methanone] belongs 146 nM; to `Cc1nccc(-c2ccc3nc(Nc4cc(C(C)N5CCN(C(=O)CC6CC6)CC5)ccn4)[nH]c3c2)n1` (racemic) [Example 24.04.04, (rac)-2-cyclopropyl-1-{4-[1-(2-{[6-(2-methylpyrimidin-4-yl)-1H-benzimidazol-2-yl]amino}pyridin-4-yl)ethyl]piperazin-1-yl}ethanone], 14.4 nM; to `COc1cc(-c2ccc3nc(Nc4cc(CN5CCN(C(=O)C6CCC6)CC5)ccn4)[nH]c3c2)c(F)cn1` [Example 03.03, cyclobutyl{4-[(2-{[6-(5-fluoro-2-methoxypyridin-4-yl)-1H-benzimidazol-2-yl]amino}pyridin-4-yl)methyl]piperazin-1-yl}methanone], 279 nM.
On to `COCc1cc(-c2ccc3nc(Nc4cc(CN5CCN(C(=O)C6(C(F)(F)F)CC6)CC5)ccn4)[nH]c3c2)ncn1` [Example 79.03, (4-{[2-({6-[6-(methoxymethyl)pyrimidin-4-yl]-1H-benzimidazol-2-yl}amino)pyridin-4-yl]methyl}piperazin-1-yl)[1-(trifluoromethyl)cyclopropyl]methanone], for which the IC50 turned out to be 3.3 nM.
The figure for `COc1cc(-c2ccc3nc(Nc4cc(CN5CCN(C(=O)OC(C)(C)C)CC5)ccn4)[nH]c3c2)ccn1` [Example 02.01, tert-butyl 4-[(2-{[6-(2-methoxypyridin-4-yl)-1H-benzimidazol-2-yl]amino}pyridin-4-yl)methyl]piperazine-1-carboxylate] is 131 nM; for `C[C@H](c1ccnc(Nc2nc3ccc(-c4cc(OCC(F)(F)F)ncn4)cc3[nH]2)c1)N1CCN(C(=O)CC(F)(F)F)CC1` [Example 119.02, 3,3,3-trifluoro-1-(4-{(1R)-1-[2-({6-[6-(2,2,2-trifluoroethoxy)pyrimidin-4-yl]-1H-benzimidazol-2-yl}amino)pyridin-4-yl]ethyl}piperazin-1-yl)propan-1-one] it is 6.69 nM.
The figure for `CC(C)Cc1noc(-c2ccc3nc(Nc4cc(CN5CCN(C(=O)CC(F)(F)F)CC5)ccn4)[nH]c3c2)n1` [Example 18.01, 3,3,3-trifluoro-1-(4-{[2-({6-[3-(2-methylpropyl)-1,2,4-oxadiazol-5-yl]-1H-benzimidazol-2-yl}amino)pyridin-4-yl]methyl}piperazin-1-yl)propan-1-one] is 72.4 nM; for `CC(c1ccnc(Nc2nc3ccc(-c4cc(C(F)F)ncn4)cc3[nH]2)c1)N1CCN(C(=O)C2CC2)CC1` (single isomer, unassigned) [Example 174.03, cyclopropyl(4-{(1R or 1S)-1-[2-({6-[6-(difluoromethyl)pyrimidin-4-yl]-1H-benzimidazol-2-yl}amino)pyridin-4-yl]ethyl}piperazin-1-yl)methanone] it is 3.26 nM.
